Data on two compounds can be found in US20050119263A1, “Treatment of breast cancer” (priority 2001, published 2005).

The subject of the test is metastatic and/or recurrent breast cancer. The experiment in a line: Phase III clinical trial, survival of patients treated with DPPE/doxorubicin versus doxorubicin alone. It counts as in vivo, human. On the procedure:
In the treatment of metastatic and/or recurrent breast cancer, the diphenyl compound preferably is used in an amount of about 3 to about 10 mg/kg of patient administered intravenously over a period of about 30 to about 90 minutes prior to administration of the chemotherapeutic agent(s) and continuing for the period of administration of the chemotherapy agent(s). In the specific Phase III clinical trial described herein, there was employed 5.3 mg/kg of DPPE in the form of the base (equivalent to 6 mg/kg of DPPE in the form of its hydrochloride), administered intravenously as an aqueous solution thereof over 80 minutes, with the last twenty minutes being accompanied by infusion of the specific chemotherapeutic agent.
The anthracycline chemotherapy agent active in breast cancer which is employed herein preferably is used in a total amount of about 50 to about 75 mg/M^2 of patient consistent with the identity of the anthracycline chemotherapy agent(s). In the specific Phase III clinical trial described herein, there was employed 60 mg/M^2 of doxorubicin administered over the last 20 minutes of infusion of the DPPE solution. […]
The survival time of patients was determined in relation to ER status for patients receiving the DPPE/DOX combination and DOX alone. […]
In addition, the survival times of patients was determined in relation to disease-free intervals for patients receiving the DPPE/DOX combination and DOX alone.
The survival times of patients was determined in relation to the number of cycles of treatment for patients receiving the DPPE/DOX combination and DOX alone.
The survival time for patients also was determined for those patients with metastatic breast cancer receiving no prior chemotherapy treatment in relation to those also had received prior chemotherapy treatment and for patients that had received no previous treatment type (i.e. no prior chemotherapy, radiotherapy and/or hormone treatment). The survival times were determined for patients receiving the DPPE/DOX combination and DOX alone.

For the compound `COc1cccc2c1C(=O)c1c(O)c3c(c(O)c1C2=O)C[C@@](O)(C(=O)CO)C[C@@H]3O[C@H]1C[C@H](N)[C@H](O)[C@H](C)O1` [DOX, doxorubicin], the median overall survival runs as follows: (patients with metastatic disease who had no previous chemotherapy, DPPE 5.3 mg/kg iv over 80 min, doxorubicin 60 mg/M^2 over last 20 min) 16.2 months; (patients with metastatic disease who had no previous treatment (chemotherapy, radiotherapy and/or hormone treatment)) 15 months.
With `CCN(CC)CCOc1ccc(Cc2ccccc2)cc1` [DPPE, N,N-diethyl-2-[4-(phenylmethyl)-phenoxy]ethanamine], the “increase in overall survival compared to the control group” value (patients with aggressive breast cancer, pretreatment with DPPE before doxorubicin) is “about 50%”.
